Measured values as given in ChEMBL document CHEMBL1134903, “Synthesis and SAR of azalide 3,6-ketal aromatic derivatives as potent Gram-positive and Gram-negative antibacterial agents” (Bioorg Med Chem Lett, 2002).
≈ marks a conversion by molar mass, not a printed value.

Columns and labels:
Format in all cases: functional
Escherichia coli = test: Minimum inhibitory concentration against Escherichia coli
Pasteurella multocida = test: Minimum inhibitory concentration against Pasteurella multocida
Staphylococcus aureus [1] = test: Effective dose required to inhibit Staphylococcus aureus intraperitoneal (IP) infection model
Staphylococcus aureus [2] = test: Minimum inhibitory concentration against Staphylococcus aureus
Staphylococcus aureus [3] = test: Colony forming units of Staphylococcus aureus intramammary infection (IMI) model was determined at a dose of 15 mg/kg

| SMILES | MIC (Escherichia coli) [µg/mL] | MIC (Pasteurella multocida) [µg/mL] | ED50 (Staphylococcus aureus [1]) [mg/kg] | MIC (Staphylococcus aureus [2]) [µg/mL] | Log CFU (Staphylococcus aureus [3]) |
| --- | --- | --- | --- | --- | --- |
| CC[C@H]1OC(=O)[C@H](C)[C@H]2OC3(CCN(C(=O)c4ccccc4)CC3)O[C@](C)(C[C@@H](C)CN(C)[C@H](C)[C@@H](O)[C@]1(C)O)[C@H](O[C@@H]1O[C@H](C)C[C@H](N(C)C)[C@H]1O)[C@H]2C | 3.13 (≈ 4.03 µM) | 0.1 (≈ 0.129 µM) |  |  |  |
| CC[C@H]1OC(=O)[C@H](C)[C@H]2OC3(CCN(Cc4cccnc4)CC3)O[C@](C)(C[C@@H](C)CN(C)[C@H](C)[C@@H](O)[C@]1(C)O)[C@H](O[C@@H]1O[C@H](C)C[C@H](N(C)C)[C@H]1O)[C@H]2C | 0.39 (≈ 0.511 µM) | 0.03 (≈ 0.0393 µM) | > 20 | 0.78 (≈ 1.02 µM) |  |
| CC[C@H]1OC(=O)[C@H](C)[C@H]2OC3(CCN(CCc4ccccc4)CC3)O[C@](C)(C[C@@H](C)CN(C)[C@H](C)[C@@H](O)[C@]1(C)O)[C@H](O[C@@H]1O[C@H](C)C[C@H](N(C)C)[C@H]1O)[C@H]2C | 0.075 (≈ 0.0966 µM) | 0.02 (≈ 0.0258 µM) | > 20 |  | 7.3 |
| CC[C@H]1OC(=O)[C@H](C)[C@H]2OC3(CCN(CCc4ccc(Cl)c(Cl)c4)CC3)O[C@](C)(C[C@@H](C)CN(C)[C@H](C)[C@@H](O)[C@]1(C)O)[C@H](O[C@@H]1O[C@H](C)C[C@H](N(C)C)[C@H]1O)[C@H]2C | 50 (≈ 59.2 µM) | 0.05 (≈ 0.0592 µM) |  | 0.2 (≈ 0.237 µM) |  |
| CC[C@H]1OC(=O)[C@H](C)[C@H]2OC3(CCN(CCc4ccccc4OC)CC3)O[C@](C)(C[C@@H](C)CN(C)[C@H](C)[C@@H](O)[C@]1(C)O)[C@H](O[C@@H]1O[C@H](C)C[C@H](N(C)C)[C@H]1O)[C@H]2C | 0.1 (≈ 0.124 µM) | 0.03 (≈ 0.0372 µM) | > 20 | 0.39 (≈ 0.484 µM) |  |
| CC[C@H]1OC(=O)[C@H](C)[C@H]2OC3(CCN(CCc4ccc5ccccc5n4)CC3)O[C@](C)(C[C@@H](C)CN(C)[C@H](C)[C@@H](O)[C@]1(C)O)[C@H](O[C@@H]1O[C@H](C)C[C@H](N(C)C)[C@H]1O)[C@H]2C | 0.78 (≈ 0.943 µM) | 0.03 (≈ 0.0363 µM) | > 20 | 0.39 (≈ 0.472 µM) |  |
| CC[C@H]1OC(=O)[C@H](C)[C@H]2OC3(CCN(CCc4ccccc4)CC3)O[C@](C)(C[C@@H](C)CN[C@H](C)[C@@H](O)[C@]1(C)O)[C@H](O[C@@H]1O[C@H](C)C[C@H](N(C)C)[C@H]1O)[C@H]2C | 0.1 (≈ 0.131 µM) | 0.03 (≈ 0.0394 µM) | > 20 | 0.39 (≈ 0.512 µM) |  |
| CC[C@H]1OC(=O)[C@H](C)[C@H]2OC3(CCN(CCc4ccc(Cl)cc4)CC3)O[C@](C)(C[C@@H](C)CN[C@H](C)[C@@H](O)[C@]1(C)O)[C@H](O[C@@H]1O[C@H](C)C[C@H](N(C)C)[C@H]1O)[C@H]2C | 0.2 (≈ 0.251 µM) | 0.01 (≈ 0.0126 µM) |  |  |  |
| CC[C@H]1OC(=O)[C@H](C)[C@H]2OC3(CCN(CCc4ccc(NC(C)=O)cc4)CC3)O[C@](C)(C[C@@H](C)CN(C)[C@H](C)[C@@H](O)[C@]1(C)O)[C@H](O[C@@H]1O[C@H](C)C[C@H](N(C)C)[C@H]1O)[C@H]2C | 0.39 (≈ 0.468 µM) | 0.05 (≈ 0.06 µM) | 9.6 |  | 9.7 |
| CC[C@H]1OC(=O)[C@H](C)[C@H]2OC3(CCN(C(=O)c4cccn4C)CC3)O[C@](C)(C[C@@H](C)CN[C@H](C)[C@@H](O)[C@]1(C)O)[C@H](O[C@@H]1O[C@H](C)C[C@H](N(C)C)[C@H]1O)[C@H]2C | 1.56 (≈ 2.04 µM) | 0.1 (≈ 0.131 µM) | 19 | 0.78 (≈ 1.02 µM) | 2.4 |
| CC[C@H]1OC(=O)[C@H](C)[C@H]2OC3(CCN(CCc4ccccc4OC)CC3)O[C@](C)(C[C@@H](C)CN[C@H](C)[C@@H](O)[C@]1(C)O)[C@H](O[C@@H]1O[C@H](C)C[C@H](N(C)C)[C@H]1O)[C@H]2C | 0.1 (≈ 0.126 µM) | 0.03 (≈ 0.0379 µM) |  | 0.39 (≈ 0.492 µM) |  |
| CC[C@H]1OC(=O)[C@H](C)[C@H]2OC3(CCN(CCc4ccnc5ccccc45)CC3)O[C@](C)(C[C@@H](C)CN[C@H](C)[C@@H](O)[C@]1(C)O)[C@H](O[C@@H]1O[C@H](C)C[C@H](N(C)C)[C@H]1O)[C@H]2C | 1.56 (≈ 1.92 µM) | 0.05 (≈ 0.0615 µM) | > 20 | 0.2 (≈ 0.246 µM) |  |
| CC[C@H]1OC(=O)[C@H](C)[C@H]2OC3(CCN(C(=O)c4ccco4)CC3)O[C@](C)(C[C@@H](C)CN(C)[C@H](C)[C@@H](O)[C@]1(C)O)[C@H](O[C@@H]1O[C@H](C)C[C@H](N(C)C)[C@H]1O)[C@H]2C | 0.78 (≈ 1.02 µM) | 0.05 (≈ 0.0653 µM) | > 20 |  | 3.3 |
| CC[C@H]1OC(=O)[C@H](C)[C@H]2OC3(CCNCC3)O[C@](C)(C[C@@H](C)CN(C)[C@H](C)[C@@H](O)[C@]1(C)O)[C@H](O[C@@H]1O[C@H](C)C[C@H](N(C)C)[C@H]1O)[C@H]2C | 0.2 (≈ 0.298 µM) | 0.05 (≈ 0.0744 µM) |  | 6.25 (≈ 9.3 µM) |  |
| CC[C@H]1OC(=O)[C@H](C)[C@H]2OC3(CCN(CCc4cccc(OC)c4)CC3)O[C@](C)(C[C@@H](C)CN[C@H](C)[C@@H](O)[C@]1(C)O)[C@H](O[C@@H]1O[C@H](C)C[C@H](N(C)C)[C@H]1O)[C@H]2C | 0.3 (≈ 0.379 µM) | 0.03 (≈ 0.0379 µM) |  | 0.39 (≈ 0.492 µM) |  |
